Literature values in US10874753B2, “Radiopharmaceutical conjugate of a metabolite and an EPR agent, for targeting tumour cells” (The South African Nuclear Energy Corporation Limited, priority 2014, dated 2020).

Columns and labels:
folate receptors (FR) = details: binding to surface folate receptors (FR)
[1] = binding of Ga by N4O2 chelator

SMILES: Nc1nc(=O)c2nc(CNc3ccc(C(=O)N[C@@H](CCC(=O)O)C(=O)O)cc3)cnc2[nH]1 [Folate]
- Kd (folate receptors (FR)): ~1 nM

SMILES: O=C(O)c1cccc(CNCCNCc2cccc(C(=O)O)n2)n1 [Cyclam H2dedpa, (1,2-bis{[[6-(carboxy)pyridine-2-yl]methyl]-amino}-ethane)]
- stability constant [1]: 28.1
